Results on three compounds are retold here after patent publication US20240123036A1, “COMPOSITIONS AND METHODS FOR THE TREATMENT OF GRAFT VERSUS HOST DISEASE” (VectivBio AG, priority 2021, published 2024).

Read-outs that look alike come from different tables or passages of the source. Square brackets hold non-standard residues; d marks the D form. Peptide text beside a SMILES is read from it. ξ: configuration not given here. Ile(3ξ) = CCC(C)[C@H](N)C(=O)O; Thr(3ξ) = CC(O)[C@H](N)C(=O)O; Nle = CCCC[C@H](N)C(=O)O

For test [1], the system named is blood cells of Balb/c mice. The test is described as follows: Cytarabine-induced immunosuppression, blood cell counts in Balb/c mice (Example 5, second experiment). The test is classed as in vivo, mouse. Also noted: reduction in lymphocytes / Red blood cells, percentage difference from control / Platelets, percentage difference from control / White blood cells, percentage difference from control / Lymphocytes, percentage difference from control / Neutrophils, percentage difference from control: concentration or dose not given beside the values. The protocol: In a second experiment, apraglutide's effect on the ability of cytarabine to induce immunosuppression was assessed. The experiment included three groups of Balb/c mice: (A) vehicle; (B) cytarabine on Days 5-9; (C) cytarabine on Days 5-9, concomitant apraglutide on Days 5-18. RBC, platelets, WBC, NEU and LYMPH were assessed. A cohort was allowed to survive for 4 weeks to assess the effect of apraglutide on immunosuppression recovery (FIG. 12).

The test system of test [2] is fecal microbiota (Bacteroidetes, Firmicutes) of Balb/c mice. The settings on record: feces.
Test [3] concerns human leukemia cells (hCD45+) in NOD/SCID mice. The settings on record: Day 7; cytarabine Days 0-4; apraglutide or vehicle Days -4 to 4.
Procedure: In a first experiment, cytarabine' s anti-tumor effects were assessed in leukemic NOD/SCID mice (FIG. 11a). Apraglutide or vehicle was administered on Days -4 to 4. Cytarabine or vehicle was administered on Days 0-4. Bone marrow and spleen samples were collected on Day 7 and percentage of hCD45+ cells determined.
Test [4] has as its system cytarabine-induced damage in BALB/cJ female mice. Conditions: for polymorphonuclear (PMN) cell count: cytarabine 30 mg/kg twice per day, alone or combined with hGLP-2 or apraglutide, FIG. 20.
Procedure: In a first experiment BALB/cJ female mice were separated into six groups for a dose-response study to assess the pharmacologic effect of increasing doses of apraglutide (0.11, 0.3 and 1.1 mg/kg) administered subcutaneously. Cytarabine was administered intraperitoneally at 30 mg/kg twice per day for 5 days (Day 0 to Day +4). Apraglutide was administered daily for a total of nine days, 4 days before and 5 days during the administration of chemotherapy (Day −4 to Day +4). Apraglutide effect was compared to unmodified hGLP-2 which was administered twice daily from Day −4 to Day +4, at a nominal dose of 0.60 mg/kg and combined with cytarabine.
Test [5] concerns blood cells of Balb/c mice. The test is described as follows: Melphalan-induced immunosuppression in Balb/c mice (Example 5, third experiment). It counts as in vivo, mouse. How it is done:
In a third experiment, the effect of apraglutide on melphalan-induced immunosuppression was assessed (FIG. 13). Three groups of Balb/c mice were included: (A) vehicle; (B) melphalan on Day 9; (C) melphalan on Day 9, apraglutide pre-treatment on Days 1, 3, 5, 7 and continued as co-administration on Days 9, 11, and 13. WBC, NEU and LYMPH were assessed.

For test [6], the system named is acute gastrointestinal GvHD in BALB/cJ male mice. Nature of the test: Acute GvHD mouse model, 8.5 Gy irradiation plus allogeneic bone marrow/spleen cell transplant (Example 1, first experiment). It counts as in vivo. How it is done:
Mouse #3 (Group A), #13 (Group B) and #20 (Group B) were administered the cells by subcutaneous injection rather than intravenously. Mouse #5 (Group B) and #10 (Group B) received half the cells by intravenous injection and half by subcutaneous injection.
Following sacrifice of the mice, the colon lengths of the mice in Group A and Group B, as well as a control group of BALB/c mice (untreated), were measured. […] Thus, treatment with apraglutide protected the mice in Group A from a reduction in colon length, which is typically attributed to the inflammation caused by acute, gastrointestinal GvHD.
Various histological parameters of the jejunum were also measured, including single cell necrosis levels, necrosis of all crypts, shortening of villi, cryptal hyperplasia (regenerative), cell infiltrate, and cryptal abscess. These histological parameters were graded on a standard histological grading system (1 to 3). […] These indicate that the administration of apraglutide has a protective effective against jejunal mucosal damages induced by irradiation and GvHD.

The test system is the same in test [7]. Nature of the test: Acute GvHD mouse model, 7.0 Gy irradiation plus allogeneic transplant (Example 1, second experiment). It counts as in vivo. From the text:
FIG. 3a-3b is a series of graphs showing colon length and small intestine length in an acute GvHD mouse model following treatment with apraglutide. Data are shown as the mean ±SEM length of intestinal colon. N-5-10/group. Each dot represents data for one mouse.
FIG. 14 is a series of graphs showing that treatment with apraglutide improves animal survival of TBI/BMT treated animals. Kaplan-Meier curves—Animal survival was monitored daily. N=10 at time=0 for each treatment group. […] When comparing to the control group, survival of TBI/BMT was significant different ### p=0.0007. BMT=b one marrow transplant; TBI=total body irradiation.

Test [8] deals with hPBMC engraftment in NOG mice. The test is described as follows: Engraftment of human PBMC in total-body-irradiated NOG mice (Example 2, first experiment). The test is classed as in vivo, mouse. The protocol: Engraftment rate was determined through CD45 expression in blood, bone marrow and spleen.
Test [9] has as its system GvHD-induced intestinal damage in BALB/cJ mice. Nature of the test: TBI-induced intestinal damage and allogeneic transplantation in BALB/cJ mice (Example 2, second experiment). The test is classed as in vivo, mouse.
Procedure: Intestinal damage indicative of GvHD (histological changes, length, hemorrhage, inflammation), body weight, and survival were assessed.
Test [10] relates to chemotherapy-induced gastrointestinal damage in Balb/c mice. Nature of the test: Chemotherapy-induced (cytarabine or melphalan) intestinal damage in Balb/c mice (Example 3). It counts as in vivo, mouse. How it is done:
In a first experiment, 4 groups of Balb/c mice: (A) vehicle only; (B) cytarabine on Days 5-9, no apraglutide given; (C) cytarabine on Days 5-9; concomitant apraglutide on Days 5-18; (D) cytarabine on Days 5-9; pre-treatment apraglutide on Days 1, 3, and continued as concomitant treatment on Days 5, 8, 11, 14, and 17. Treatment groups were dosed with 30 mg/kg cytarabine and/or apraglutide 3.3 mg/kg.
In a second experiment, 3 treatment groups of Balb/c mice: (A) vehicle only; (B) melphalan on Day 9, no apraglutide; (C) melphalan on Day 9; pre-treatment apraglutide on Days 1, 3, 5, 7 and continued as concomitant treatment on Days 9, 11, and 13.
In both models, mice that received vehicle without any treatment served as controls. Intestinal tissue histology, body weight, survival, and plasma citrulline, a marker of total mucosal mass and intestinal growth, was assessed in both models.

Where [11] appears, read: Day 18 (post-treatment), cytarabine 30 mg/kg Days 5-9, apraglutide 3.3 mg/kg Days 1-18.
Where [12] appears, read: melphalan on Day 9, with or without apraglutide.

For `Nc1ccn([C@@H]2O[C@H](CO)[C@@H](O)[C@@H]2O)c(=O)n1` [Cytarabine only, Cytarabine], in test [1] (at treatment end), the “Lymphocytes, percentage difference from control” value is listed as −91%; the “Neutrophils, percentage difference from control” value was −82%; the “Platelets, percentage difference from control” value was −68%; the “Red blood cells, percentage difference from control” value was −23%. In [1] (at treatment end), the “White blood cells, percentage difference from control” value is −89%. In test [1] (end of the treatment period), this compound gave a reduction in lymphocytes of 91%. Also, in test [2] (Day 0 (pre-treatment)), the “Mean % of taxa at the Phylum level, Bacteroidetes, Day 0” value is 16.3% and the “Mean % of taxa at the Phylum level, Firmicutes, Day 0” value came to 78.7%. For the same compound, in [2] (setting [11]), the “Mean % of taxa at the Phylum level, Bacteroidetes, Day 18” value is listed as 48.7% and the “Mean % of taxa at the Phylum level, Firmicutes, Day 18” value worked out at 49.5%. Also, the “percentage of hCD45 in bone marrow after chemotherapy” value in [3] is 35.5±4%. Moreover, the “polymorphonuclear (PMN) cell count” value in test [4] is listed as “depleted”.

`N[C@@H](Cc1ccc(N(CCCl)CCCl)cc1)C(=O)O` [melphalan, Melphalan]: in test [5] (setting [12]), the LYMPH vs vehicle entry is on record as “severe decreases” and the WBC vs vehicle result was “severe decreases”.

Take `CCCC[C@H](NC(=O)[C@H](CCC(=O)O)NC(=O)[C@H](CC(=O)O)NC(=O)[C@H](CO)NC(=O)[C@H](Cc1ccccc1)NC(=O)[C@H](CO)NC(=O)CNC(=O)[C@H](CC(=O)O)NC(=O)CNC(=O)[C@@H](N)Cc1c[nH]cn1)C(=O)N[C@H](Cc1ccccc1)C(=O)N[C@H](C(=O)N[C@H](C(=O)N[C@@H](CC(C)C)C(=O)N[C@@H](CC(=O)O)C(=O)N[C@@H](CC(C)C)C(=O)N[C@@H](CC(C)C)C(=O)N[C@@H](C)C(=O)N[C@@H](C)C(=O)N[C@@H](CCCNC(=N)N)C(=O)N[C@@H](CC(=O)O)C(=O)N[C@@H](Cc1ccccc1)C(=O)N[C@H](C(=O)N[C@@H](CC(N)=O)C(=O)N[C@@H](Cc1c[nH]c2ccccc12)C(=O)N[C@@H](CC(C)C)C(=O)N[C@H](C(=O)N[C@@H](CCC(N)=O)C(=O)N[C@H](C(=O)N[C@@H](CCCCN)C(=O)N[C@H](C(=O)N[C@H](C(=O)N[C@@H](CC(=O)O)C(N)=O)C(C)O)C(C)CC)C(C)O)C(C)CC)C(C)CC)C(C)CC)C(C)O` (stereo partly drawn) [apraglutide] (H-HGDGSFSDE[Nle][dF][Thr(3ξ)][Ile(3ξ)]LDLLAARDF[Ile(3ξ)]NWL[Ile(3ξ)]Q[Thr(3ξ)]K[Ile(3ξ)][Thr(3ξ)]D-NH2): the colon length entry in [6] (apraglutide 3 mg/kg s.c. every second day Day -9 to +7, 8.5 Gy, vs vehicle group and untreated control mice, FIG. 1) is recorded as “increased colon lengths that were nearly the same as the control mice”. Moreover, the “overall mean severity score of mucosal degenerative/inflammatory changes in the jejunum” value in test [6] (apraglutide 3 mg/kg s.c., compared with vehicle, histological grading 1 to 3) is reported as “slightly decreased”. Moreover, in test [6] (jejunum, apraglutide 3 mg/kg s.c., compared with vehicle), the “mean severity score of the regenerative cryptal hyperplasia” value is recorded as “slightly increased”. Also, the “body weight of mice surviving beyond Day 9” value in test [7] (Group A (apraglutide)) is listed as “regained body weight”. In addition, the weight loss result in [7] (Group A (apraglutide) vs Group B (vehicle)) is recorded as “No significant difference”. In addition, the “length of the small intestine” value in [7] (across the three Groups, FIG. 3) is listed as “no differences were observed”. Also, in test [7] (apraglutide 3 mg/kg s.c. every second day Day -9 to +7, 7.0 Gy + transplant), the median survival came out at 9 days. Also, the “mice survived past Day 9” value in test [7] (apraglutide 3 mg/kg s.c., 7.0 Gy + transplant) is 40%. The “animal survival (Kaplan-Meier, log-rank test)” value in [7] (apraglutide initiated before TBI/BMT, FIG. 14, p<0.03) is recorded as “significant difference relative to TBI/BMT animals”. Besides, in test [7] (macroscopic score 0 least severe to 4 most severe, Group A), the “mice showing an intestinal pathological score of 0” value is “four out of out of ten”. Besides, the “engraftment rate in blood, spleen and bone marrow” value in test [8] (apraglutide 3.3 mg/kg Days -6 to 18, CD45 expression) is “not affected”. Further, the “hCD45+ cells infiltration in the intestinal wall” value in [8] (apraglutide vs vehicle) is “no difference”. In addition, in [8] (at D20 in blood, range), the “engraftment rate in blood” value was 22.2-47.6%. For the same compound, the lymphocyte engraftment entry in test [9] (apraglutide 3.3 mg/kg Days -9 to +7) is given as “successfully achieved”. The mean colon length in test [9] (apraglutide 3.3 mg/kg, TBI + allogeneic transplantation) worked out at 8.6±0.35 cm. Moreover, the “mucosal degenerative/inflammatory changes (post-mortem histological examination)” value in test [9] (apraglutide vs vehicle) is recorded as “less”. Further, the overall survival in [9] (on Day +9, p=0.0134 vs vehicle) is listed as 40%; in test [10] (vs vehicle-only or chemotherapy-only groups, FIG. 9), “improved”. In addition, the chemotherapy-induced weight loss entry in [10] (FIG. 8) is on record as “attenuated”. In addition, the “degenerative intestinal changes (villi and crypt atrophy) caused by cytarabine or melphalan” value in test [10] (apraglutide 3.3 mg/kg co-administration, histology) was “reduced”. Besides, the “weight of duodenum, ileum and jejunum” value in test [10] (with apraglutide) is “increased in weight”. The “recovery of hematological parameters” value in [1] (4 weeks after the end of treatment) is “did not impact”. The “impact on cytarabine- or melphalan-induced immunosuppression” value in [5] (combination with apraglutide) was “no negative impact”. Besides, the animal survival in test [4] (apraglutide 0.11 mg/kg s.c. daily Day -4 to +4 with cytarabine 30 mg/kg i.p. twice per day Day 0 to +4) is listed as 11/16; in test [4] (apraglutide 0.33 mg/kg s.c. daily Day -4 to +4 with cytarabine 30 mg/kg i.p. twice per day Day 0 to +4), 14/16; in test [4] (apraglutide 1.1 mg/kg s.c. daily Day -4 to +4 with cytarabine 30 mg/kg i.p. twice per day Day 0 to +4) it was 16/16. The citrulline concentrations entry in test [4] (apraglutide 0.33 mg/kg and 1.1 mg/kg co-administered with cytarabine, compared to cytarabine alone, FIG. 19) is listed as “improvement”. For the same compound, in test [4] (combination with cytarabine, apraglutide 0.11 mg/kg, hGLP-2 0.60 mg/kg twice daily), the initial weight loss result is given as “did not decrease”. Also, the “body weight and survival in animals recovering from cytarabine treatment” value in [4] (combination with cytarabine, apraglutide 0.11 mg/kg, hGLP-2 0.60 mg/kg twice daily, FIG. 18) was “a trend towards increased body weight and survival”. Moreover, the “polymorphonuclear (PMN) cell count” value in [4] is recorded as “not reversed”.
